Reference: US7491793B2 (priority 2003, dated 2009)
“Also recorded” adds a separate entry of the source.

Columns and labels:
[1] = system: Lassa fever; conditions: only if administered early (up to six days) in the course of illness; cited from earlier work
[2] = system: SARS coronavirus strain Urbani; type: cell-based, SARS CoV strain Urbani or HK
[3] = system: mouse hepatitis virus strain A59; type: cell-based, Mouse hepatitis virus (MHV) strain A59
[4] = system: HIV-1 virion:cell fusion; conditions: read-out: concentration giving 50% inhibition of HIV-1 virion:cell fusion; cited from earlier work
[5] = system: HIV-1; conditions: 100 mg/day, clinical trial, infected individuals; cited from earlier work

Molecule: NC(=O)c1ncn([C@@H]2O[C@H](CO)[C@@H](O)[C@H]2O)n1 [ribavirin]
- efficacy in the treatment of Lassa fever [1]: effective

Molecule: AACEVAKNLNESLIDLQELGKYEQYIKW [SEQ ID NO:29]
- inhibition of plaque formation by SARS CoV [2]: some inhibition

Molecule: GNHILSLVQNAPYGLYFIHFSW [SEQ IDS NO:22]
- inhibition of plaque formation by MHV [3]: can inhibit plaque formation by MHV; also recorded: more efficient

Molecule: GVFVFNGTSWFITQRNFFS [SEQ ID NO:25]
- inhibition of plaque formation by SARS CoV [2]: inhibited plaque formation

Molecule: GYFVQDDGEWKFTGSSYYY [SEQ ID NO:23, synthetic peptide from the MHV FIR]
- inhibition of plaque formation by MHV [3]: can inhibit plaque formation by MHV

Molecule: GYHLMSFPQAAPHGVVFLHVTY [SEQ ID NO:24]
- inhibition of plaque formation by SARS CoV [2]: inhibited plaque formation

Molecule: MFPPWSAAAGVPFSLSVQY [SEQ ID NO:26]
- inhibition of plaque formation by MHV [3]: some inhibition

Molecule: MYKTPTLKYFGGFNFSQIL [SEQ ID NO:28]
- inhibition of plaque formation by SARS CoV [2]: some inhibition

Molecule: QDAIKKLNESYINLKEVGTYEMYVKW [SEQ ID NO:27, peptide from the carboxyl terminal helix of MHV S]
- inhibition of plaque formation by MHV [3]: some inhibition

Molecule: enfuvirtide
- IC50 [4]: 1.7 nM
- reduction in plasma HIV-1 load [5]: approximately 100 fold
